One assay deals with HL-60. Briefly: Cytotoxicity against human HL60 cells after 72 hrs by MTT assay. In kind it is functional, cell-based. The conditions noted are these: for pIC50: Homo sapiens, HL-60, 72 h, read-out: IC50; for IC50: hl-60. For orientation: Tetrazolium assays rely on reduction of a dye to a coloured formazan, in cell work by metabolically active cells.
In a further assay the test system is A549. Briefly: Cytotoxicity against human A549 cells after 72 hrs by SRB assay. In kind it is functional, cell-based. A general note: Sulforhodamine B stains cellular protein and so reports cell mass.

pIC50: −log10 of the molar value.

Consider `COC(C)(CCCC(C)C)c1ccc(Cc2c(C)cc(Oc3cc(C)cc(O)c3)cc2O)cc1O` (single isomer, unassigned) [EXPANSOL A], for which, in the assay with HL-60, the pIC50 (as a rule, the IC50 on a negative log10 scale, so that one unit is a factor of ten) was 4.80.

Take `C=C(C)CCC[C@](C)(O)c1ccc(C(=O)O)cc1O` [11-DEHYDROSYDONIC ACID]: the IC50 entry with HL-60 and with A549 was “Not Active” each time.

Turning to `CC(=O)OC[C@@H](C)CCC[C@](C)(O)c1ccc(C(=O)O)cc1O` [12-ACETOXYSYDONIC ACID], the IC50 entry with HL-60 and with A549 was “Not Active” in each case.

Take `Cc1cc(O)cc(Oc2cc(C)c(Cc3ccc([C@](C)(O)CCCC(C)C)c(O)c3)c(O)c2)c1` [EXPANSOL B]: the pIC50 in the assay with HL-60 was 5.27.

These data come from ChEMBL document CHEMBL1157773, “Cytotoxic polyphenols from the marine-derived fungus Penicillium expansum” (J Nat Prod, 2010).
